A short description of data set [1]: Metabolic stability in mouse liver microsomes assessed as compound remaining after 30 mins. Format: ADME, Microsome. The note with it: read-out: Stability.
The nature of data set [2]: Metabolic stability in human liver microsomes assessed as compound remaining after 30 mins. The note with it: read-out: Stability. It is filed as ADME, Microsome. A general note: Microsomes from liver hold many membrane-bound enzymes, among them those of drug oxidation.
Data set [3] can be described thus: Metabolic stability in rat liver microsomes assessed as compound remaining after 30 mins. It is filed as ADME, Microsome. The note with it: read-out: Stability.
The nature of data set [4]: Tmax in diet-induced obese C57BL/6J mouse at 30 mg/kg, po. Format: ADME, organism-based. On the set-up: dose 30 mg/kg, route oral. The note with it: in vivo.
A short description of data set [5]: Tmax in diet-induced obese C57BL/6J mouse at 10 mg/kg, po. Format: ADME, organism-based. On the set-up: dose 10 mg/kg, route oral. The note with it: in vivo.
Data set [6] in a line: Oral bioavailability in Sprague-Dawley rat. Format: ADME, organism-based. The note with it: in vivo.
Data set [7] is described as follows: AUC (0 to infinity) in diet-induced obese C57BL/6J mouse at 30 mg/kg, po. More on the design: time infinity, dose 30 mg/kg, route oral. It is filed as ADME, organism-based. The note with it: plasma.
A short description of data set [8]: Cmax in diet-induced obese C57BL/6J mouse at 10 mg/kg, po. Format: ADME, organism-based. On the set-up: dose 10 mg/kg, route oral. The note with it: in vivo.
Data set [9] concerns Brain. Nature of the data set: Drug level in diet-induced obese C57BL/6J mouse brain at 30 mg/kg, po after 24 hrs. It is filed as ADME, organism-based. More on the design: dose 30 mg/kg, route oral. The note with it: in vivo.
Data set [10] is described as follows: AUC (0 to infinity) in diet-induced obese C57BL/6J mouse at 10 mg/kg, po. Format: ADME, organism-based. On the set-up: time infinity, dose 10 mg/kg, route oral. The note with it: plasma.
Data set [11] can be described thus: Cmax in Sprague-Dawley rat at 3 mg/kg, po. Format: ADME, organism-based. More on the design: dose 3 mg/kg, route oral. The note with it: in vivo.
Data set [12] can be described thus: Plasma concentration in diet-induced obese C57BL/6J mouse at 30 mg/kg, po after 24 hrs. It is filed as ADME, organism-based. On the set-up: dose 30 mg/kg, route oral.
Data set [13] can be described thus: Plasma concentration in Sprague-Dawley rat at 10 mg/kg, po after 2 hrs. It is filed as ADME, organism-based. More on the design: dose 10 mg/kg, route oral.
The nature of data set [14]: Plasma clearance in Sprague-Dawley rat at 1 mg/kg, iv. Format: ADME, organism-based. On the set-up: dose 1 mg/kg, route intravenous.
Another data set has as its system Rattus norvegicus. Briefly: AUC (0 to infinity) in Sprague-Dawley rat at 3 mg/kg, po. Format: ADME, organism-based, Plasma. More on the design: time infinity, dose 3 mg/kg, route oral. The note with it: in vivo.
Data set [15] is described as follows: Ratio of drug level in brain to plasma of Sprague-Dawley rat at 10 mg/kg, po after 2 hrs. More on the design: dose 10 mg/kg, route oral. Format: ADME, organism-based.
Data set [16] in a line: Drug level in Sprague-Dawley rat cerebrospinal fluid at 10 mg/kg, po after 2 hrs. More on the design: dose 10 mg/kg, route oral. It is filed as ADME, organism-based. The note with it: read-out: Drug uptake.
The nature of data set [17]: Ratio of drug level in brain to plasma of diet-induced obese C57BL/6J mouse at 30 mg/kg, po after 24 hrs. More on the design: dose 30 mg/kg, route oral. Format: ADME, organism-based.
Data set [18] in a line: Cmax in diet-induced obese C57BL/6J mouse at 30 mg/kg, po. On the set-up: dose 30 mg/kg, route oral. The note with it: in vivo. Format: ADME, organism-based.
A short description of data set [19]: Half life in Sprague-Dawley rat at 1 mg/kg, iv. Format: ADME, organism-based. The note with it: in vivo. More on the design: dose 1 mg/kg, route intravenous.
In data set [20] the test system is Brain. Briefly: Drug level in Sprague-Dawley rat brain at 10 mg/kg, po after 2 hrs. The note with it: in vivo. Format: ADME, organism-based. More on the design: dose 10 mg/kg, route oral.
Data set [21] in a line: Volume of distribution at steady state in Sprague-Dawley rat at 1 mg/kg, iv. It is filed as ADME, organism-based. More on the design: dose 1 mg/kg, route intravenous. The note with it: in vivo, read-out: Vdss.

The results in this text go back to ChEMBL document CHEMBL1155989, “Discovery of novel diarylketoxime derivatives as selective and orally active melanin-concentrating hormone 1 receptor antagonists” (Bioorg Med Chem Lett, 2009).

With `CCO/N=C(/c1ccc(F)c(F)c1)c1ccc(CN2CCC3(CC2)OCc2cc(=O)n(C)cc23)cn1`, the remaining at 0.5 h in [1] came to 74%; in [2] it was 77%; in data set [3], 84%.

`Fc1cc2c(cn1)C1(CCN(Cc3ccc(Oc4ccc(F)c(F)c4)cc3)CC1)OC2`: the remaining at 0.5 h in data set [1] is 3%; in [2] it was 17%; in [3], 4%.

For `CCO/N=C(/c1ccc(F)c(F)c1)c1ccc(CN2CCC3(CC2)OCc2cn(C)c(=O)cc23)cn1`, the time of peak concentration (Tmax) in [4] and in data set [5] was 2 h in each case. The bioavailability (as a rule, dose-corrected exposure relative to a reference, in per cent) in [6] worked out at 87%. The remaining at 0.5 h stood at 57% in [1], 68% in [2] and 71% in data set [3]. Also, the AUC(0-inf) (in general, the area under the concentration-time curve extrapolated to infinity) was determined as 90.7 µM·h in data set [7] and 15.4 µM·h in data set [10]. Further, the highest concentration (Cmax) (in general, the highest concentration seen after dosing) in data set [8] was determined as 4.27 µM; in [11] it was 1.85 µM; in data set [18] it was 15.6 µM. Moreover, the figures for the Drug uptake in the data set with Brain [9] and in the data set with Brain [20] were 0.052 nmol/g and 2.2 nmol/g, respectively. In addition, in [12], the concentration at 24 h stood at 0.119 µM. Besides, the concentration at 2 h came out at 4.5 µM in data set [13] and 0.13 µM in data set [16]. Moreover, the clearance (as a rule, the volume of plasma or blood freed of the substance per unit of time) in data set [14] came out at 13 mL/min/kg. Further, in the data set on Rattus norvegicus, the area under the curve (AUC) (commonly concentration integrated over time) is 6.57 µM·h. For the same compound, the Kp (as a rule, tissue or fluid exposure divided by exposure in the circulation) at 2 h in data set [15] amounted to 0.49. Further, the Kp at 24 h in data set [17] was determined as 0.43. In data set [19], the half-life (commonly how long it takes for the measured level to halve) was 1.4 h. Further, the Vd in [21] turned out to be 1.6 L/kg.

With `CCO/N=C(/c1ccc(F)c(F)c1)c1ccc(CN2CCC3(CC2)OCc2cc(F)ncc23)cn1`, the remaining at 0.5 h in data set [1] was determined as 11%; in data set [2], 0%; in data set [3], 2%.

For `O=C(C(c1ccc(F)c(F)c1)n1cccn1)N(CCF)CCCN1CCC2(CC1)OCc1cc(F)ncc12` (centres undefined), the remaining at 0.5 h was found to be 22% in data set [1], 12% in data set [2] and 31% in [3].
